Data as given in PMC12396409, “Screening and hit evaluation of a microbial metabolite library against the pathogenic Plasmodium falciparum and Toxoplasma gondii parasites” (International Journal for Parasitology: Drugs and Drug …, 2025).
Where two headings read alike, the source gives them in different places.

Legend:
[1] = system: P. falciparum 3D7 parasites; assay: P. falciparum growth inhibition assay, 1-cycle (72 h treatment), SYBR DNA staining (library screen at 2 μg/mL and dose-response); type: cell-based, Plasmodium falciparum; details: for activity at 2 µg/mL: Plasmodium falciparum, 3D7
[2] = system: T. gondii RH strain (RH-Tub-eYFP) tachyzoites; assay: microbe, parasite or virus in culture; type: cell-based, Toxoplasma gondii; details: 72 h; for percent parasite growth at 2 µg/mL: Toxoplasma gondii
[3] = system: P. falciparum 3D7 parasites; assay: P. falciparum growth inhibition assay, 2-cycle (120 h treatment), delayed-death screen and dose-response; type: cell-based, Plasmodium falciparum; details: for activity at 2 µg/mL: Plasmodium falciparum, 3D7
[4] = library screen at 2 μg/mL, 72 h, % growth, replicate 1
[5] = library screen at 2 μg/mL, 72 h, % growth, replicate 2
[6] = library screen at 2 μg/mL, % growth, replicate 1
[7] = library screen at 2 μg/mL, % growth, replicate 2
[8] = library screen at 2 μg/mL, 120 h, % growth, replicate 1
[9] = library screen at 2 μg/mL, 120 h, % growth, replicate 2
[10] = P. falciparum 3D7, 72 h, library screen at 2 μg/mL, % growth, replicate 1
[11] = P. falciparum 3D7, 72 h, library screen at 2 μg/mL, % growth, replicate 2
[12] = T. gondii RH, library screen at 2 μg/mL, % growth, replicate 1
[13] = T. gondii RH, library screen at 2 μg/mL, % growth, replicate 2
[14] = P. falciparum 3D7, 120 h, library screen at 2 μg/mL, % growth, replicate 1
[15] = P. falciparum 3D7, 120 h, library screen at 2 μg/mL, % growth, replicate 2
[16] = P. falciparum, 72 h, parasite screen 2 μg/mL, % growth, replicate 1, read-out: Pf_72h_%Growth_Rep1
[17] = P. falciparum, 72 h, parasite screen 2 μg/mL, % growth, replicate 2, read-out: Pf_72h_%Growth_Rep2
[18] = T. gondii, parasite screen 2 μg/mL, % growth, replicate 1, read-out: Tg_72h_%Growth_Rep1
[19] = T. gondii, parasite screen 2 μg/mL, % growth, replicate 2, read-out: Tg_72h_%Growth_Rep2
[20] = P. falciparum, 120 h, parasite screen 2 μg/mL, % growth, replicate 1, read-out: Pf_120h_%Growth_Rep1
[21] = P. falciparum, 120 h, parasite screen 2 μg/mL, % growth, replicate 2, read-out: Pf_120h_%Growth_Rep2
[22] = P. falciparum, 72 h, screen at 2 μg/mL, replicate 1
[23] = P. falciparum, 72 h, screen at 2 μg/mL, replicate 2
[24] = T. gondii, screen at 2 μg/mL, replicate 1
[25] = T. gondii, screen at 2 μg/mL, replicate 2
[26] = P. falciparum, 120 h, screen at 2 μg/mL, replicate 1
[27] = P. falciparum, 120 h, screen at 2 μg/mL, replicate 2

## C/C=C/C=C/C=C/C(=O)N[C@H]1CCCNC(=O)[C@H](C)N(C)C(=O)[C@H](C(C)C)N(C)C1=O [Aspochracin]
[1]; [4]
  Pf_72h_%Growth_Rep1: 109.60%
[1]; [5]
  Pf_72h_%Growth_Rep2: 89.28%
[2]; [6]
  Tg_72h_%Growth_Rep1: 82.68%
[2]; [7]
  Tg_72h_%Growth_Rep2: 94.06%
[3]; [8]
  Pf_120h_%Growth_Rep1: 147.75%
[3]; [9]
  Pf_120h_%Growth_Rep2: 101.25%

## CC(=O)[C@H]1c2c(c(O)c3c(O)cccc3c2-c2c3c(c(O)c4c(O)cccc24)C(=O)C[C@](C)(O)[C@H]3C(C)=O)C(=O)C[C@]1(C)O [A 39183A]
[1]; [4]
  Pf_72h_%Growth_Rep1: 2.40%
[1]; [5]
  Pf_72h_%Growth_Rep2: 2.28%
[2]; [6]
  Tg_72h_%Growth_Rep1: 90.59%
[2]; [7]
  Tg_72h_%Growth_Rep2: 100.22%
[3]; [8]
  Pf_120h_%Growth_Rep1: 5.28%
[3]; [9]
  Pf_120h_%Growth_Rep2: -2.60%

## CC(C)Cc1cnc(C(O)C(C)C)c(=O)n1O (stereo not drawn) [BIA-N1641]
[1]; P. falciparum 3D7, 72 h, parasite screen at 2 μg/mL, % growth, replicate 1
  Pf_72h_%Growth_Rep1: 83.86%
[1]; P. falciparum 3D7, 72 h, parasite screen at 2 μg/mL, % growth, replicate 2
  Pf_72h_%Growth_Rep2: 85.70%
[2]; T. gondii, parasite screen at 2 μg/mL, % growth, replicate 1
  Tg_72h_%Growth_Rep1: 143.25%
[2]; T. gondii, parasite screen at 2 μg/mL, % growth, replicate 2
  Tg_72h_%Growth_Rep2: 85.15%
[3]; P. falciparum 3D7, 120 h, parasite screen at 2 μg/mL, % growth, replicate 1
  Pf_120h_%Growth_Rep1: 89.64%
[3]; P. falciparum 3D7, 120 h, parasite screen at 2 μg/mL, % growth, replicate 2
  Pf_120h_%Growth_Rep2: 132.16%

## CC1OC(=O)C2CC3CCCCC3C(C=CC3CCCC(C)N3C)C12 (stereo not drawn) [BIA-H1744]
[1]; [10]
  Pf_72h_%Growth_Rep1: 66.16%
[1]; [11]
  Pf_72h_%Growth_Rep2: 101.99%
[2]; [12]
  Tg_72h_%Growth_Rep1: 122.85%
[2]; [13]
  Tg_72h_%Growth_Rep2: 95.17%
[3]; [14]
  Pf_120h_%Growth_Rep1: 64.50%
[3]; [15]
  Pf_120h_%Growth_Rep2: 86.77%

## C=CC(C)(C)C12CC3C(=O)Nc4ccccc4C(=O)N3C1Nc1ccccc12 (stereo not drawn) [Aszonalenin]
[1]; [4]
  Pf_72h_%Growth_Rep1: 81.55%
[1]; [5]
  Pf_72h_%Growth_Rep2: 89.57%
[2]; [6]
  Tg_72h_%Growth_Rep1: 156.81%
[2]; [7]
  Tg_72h_%Growth_Rep2: 98.02%
[3]; [8]
  Pf_120h_%Growth_Rep1: 90.27%
[3]; [9]
  Pf_120h_%Growth_Rep2: 94.67%

## C[C@@H]1CCCCCCCCC[C@H](OC(=O)CCC(=O)O)C(=O)/C=C/C(=O)O1 [A 26771B]
[1]; [4]
  Pf_72h_%Growth_Rep1: 82.59%
[1]; [5]
  Pf_72h_%Growth_Rep2: 86.99%
[2]; [6]
  Tg_72h_%Growth_Rep1: 90.42%
[2]; [7]
  Tg_72h_%Growth_Rep2: 102.55%
[3]; [8]
  Pf_120h_%Growth_Rep1: 86.96%
[3]; [9]
  Pf_120h_%Growth_Rep2: 89.23%

## CN1CCC2(c3cccc4c3NC3N(C)CCC43C34CCN(C)C3Nc3ccccc34)c3ccccc3NC12 (stereo not drawn) [BIA-H1948]
[1]; [10]
  Pf_72h_%Growth_Rep1: 8.04%
[1]; [11]
  Pf_72h_%Growth_Rep2: 0.51%
[2]; [12]
  Tg_72h_%Growth_Rep1: 27.32%
[2]; [13]
  Tg_72h_%Growth_Rep2: 71.35%
[3]; [14]
  Pf_120h_%Growth_Rep1: 10.24%
[3]; [15]
  Pf_120h_%Growth_Rep2: -13.19%

## COc1cc(C)c2c(OC)cc(=O)oc2c1-c1c(OC)cc(C)c2c(OC)cc(=O)oc12 [BIA-K1634]
[1]; [10]
  Pf_72h_%Growth_Rep1: 79.71%
[1]; [11]
  Pf_72h_%Growth_Rep2: 89.27%
[2]; [12]
  Tg_72h_%Growth_Rep1: 128.61%
[2]; [13]
  Tg_72h_%Growth_Rep2: 101.38%
[3]; [14]
  Pf_120h_%Growth_Rep1: 81.50%
[3]; [15]
  Pf_120h_%Growth_Rep2: 124.49%

## COc1cc(C(=O)O)c2c(c1C)OC(=O)c1c(C)cc(O)c(C=O)c1O2 [Psoromic acid]
[1]; [16]
  activity at 2 µg/mL: 92.3%
[1]; [17]
  activity at 2 µg/mL: 123%
[2]; [18]
  percent parasite growth at 2 µg/mL: 127%
[2]; [19]
  percent parasite growth at 2 µg/mL: 82.8%
[3]; [20]
  activity at 2 µg/mL: 90.8%
[3]; [21]
  activity at 2 µg/mL: 141%

## CCCC1CC(C(=O)NC(C(C)O)C2OC(SC)C(O)C(O)C2O)N(C)C1 (stereo not drawn) [BIA-L1457]
[1]; [10]
  Pf_72h_%Growth_Rep1: 49.27%
[1]; [11]
  Pf_72h_%Growth_Rep2: 59.50%
[2]; [12]
  Tg_72h_%Growth_Rep1: 26.67%
[2]; [13]
  Tg_72h_%Growth_Rep2: 42.80%
[3]; [14]
  Pf_120h_%Growth_Rep1: 9.59%
[3]; [15]
  Pf_120h_%Growth_Rep2: 18.68%

## CC1(C)[C@H](C(=O)O)N2C(=O)C[C@H]2S1(=O)=O [Sulbactam sodium]
[1]; [16]
  activity at 2 µg/mL: 90.2%
[1]; [17]
  activity at 2 µg/mL: 124%
[2]; [18]
  percent parasite growth at 2 µg/mL: 134%
[2]; [19]
  percent parasite growth at 2 µg/mL: 84.2%
[3]; [20]
  activity at 2 µg/mL: 105%
[3]; [21]
  activity at 2 µg/mL: 104%

## COc1ccc2c3c(c4cc(OC)c(OC)cc4c2c1)C[C@H]1CCCCN1C3 [Cryptopleurine]
[1]; 2 μg/mL, 72 h, active = ≥80 % growth inhibition
  activity in the screen against P. falciparum: activity against both parasites
[1]; 3D7, 72 h treatment, mean ± S.D., n ≥ 3, read-out: IC50 (μM), P. falciparum
  IC50: 0.008 ± 0.003 µM
[1]; [22]
  Pf_72h_%Growth_Rep1: 8.09%
[1]; [23]
  Pf_72h_%Growth_Rep2: -1.65%
[1]; library screen at 2 μg/mL, 3D7, 72 h, DD from the 120 h timepoint
  Screen (P. falciparum): A, A
[2]; 2 μg/mL, active = ≥80 % growth inhibition
  activity in the screen against T. gondii: activity against both parasites
[2]; RH strain, mean ± S.D., n ≥ 3, read-out: IC50 (μM), T. gondii (converted)
  IC50: 0.011 µM
[2]; [24]
  Tg_72h_%Growth_Rep1: 6.11%
[2]; [25]
  Tg_72h_%Growth_Rep2: 2.53%
[2]; library screen at 2 μg/mL, RH strain
  Screen (T. gondii): A, A
[3]; [26]
  Pf_120h_%Growth_Rep1: 9.09%
[3]; [27]
  Pf_120h_%Growth_Rep2: 3.06%

## COc1ccc(-c2coc3cc(O)cc(O)c3c2=O)cc1 [Biochanin A]
[1]; [4]
  Pf_72h_%Growth_Rep1: 105.15%
[1]; [5]
  Pf_72h_%Growth_Rep2: 90.67%
[2]; [6]
  Tg_72h_%Growth_Rep1: 75.87%
[2]; [7]
  Tg_72h_%Growth_Rep2: 92.06%
[3]; [8]
  Pf_120h_%Growth_Rep1: 158.83%
[3]; [9]
  Pf_120h_%Growth_Rep2: 100.13%

## CC[C@H](C)[C@H]1O[C@]2(C=C[C@@H]1C)C[C@@H]1C[C@@H](C/C=C(\C)[C@@H](O[C@H]3C[C@H](OC)[C@@H](O)[C@H](C)O3)[C@@H](C)/C=C/C=C3\CO[C@@H]4[C@H](O)C(C)=C[C@@H](C(=O)O1)[C@]34O)O2 [Avermectin B1a monosaccharide]
[1]; [4]
  Pf_72h_%Growth_Rep1: 47.44%
[1]; [5]
  Pf_72h_%Growth_Rep2: 32.72%
[2]; [6]
  Tg_72h_%Growth_Rep1: 153.46%
[2]; [7]
  Tg_72h_%Growth_Rep2: 93.98%
[3]; [8]
  Pf_120h_%Growth_Rep1: 24.77%
[3]; [9]
  Pf_120h_%Growth_Rep2: 20.49%

## CN(C)c1cc(NC(=O)CNC(C)(C)C)c(O)c2c1C[C@H]1C[C@H]3[C@H](N(C)C)C(O)=C(C(N)=O)C(=O)[C@@]3(O)C(O)=C1C2=O [Tigecycline]
[1]; P. falciparum, 72 h, screen at 2 μg/mL, replicate 1, read-out: Pf_72h_%Growth_Rep1
  activity at 2 µg/mL: 88.2%
[1]; P. falciparum, 72 h, screen at 2 μg/mL, replicate 2, read-out: Pf_72h_%Growth_Rep2
  activity at 2 µg/mL: 87.6%
[2]; T. gondii, screen at 2 μg/mL, replicate 1, read-out: Tg_72h_%Growth_Rep1
  percent parasite growth at 2 µg/mL: 144%
[2]; T. gondii, screen at 2 μg/mL, replicate 2, read-out: Tg_72h_%Growth_Rep2
  percent parasite growth at 2 µg/mL: 97%
[3]; P. falciparum, 120 h, screen at 2 μg/mL, replicate 1, read-out: Pf_120h_%Growth_Rep1
  activity at 2 µg/mL: 106%
[3]; P. falciparum, 120 h, screen at 2 μg/mL, replicate 2, read-out: Pf_120h_%Growth_Rep2
  activity at 2 µg/mL: 93.4%

## CCC(C)CCCCCCC(=O)N[C@H]1[C@H](Oc2c3cc4cc2Oc2ccc(cc2Cl)[C@@H](O[C@@H]2O[C@H](CO)[C@@H](O)[C@H](O)[C@H]2NC(C)=O)[C@@H]2NC(=O)[C@H](NC(=O)[C@@H]4NC(=O)[C@H]4NC(=O)[C@@H](Cc5ccc(c(Cl)c5)O3)NC(=O)[C@H](N)c3ccc(O)c(c3)Oc3cc(O)cc4c3)c3ccc(O)c(c3)-c3c(O[C@H]4O[C@H](CO)[C@@H](O)[C@H](O)[C@@H]4O)cc(O)cc3[C@@H](C(=O)O)NC2=O)O[C@H](CO)[C@@H](O)[C@@H]1O (stereo partly drawn) [Teicoplanin A2-4]
[1]; [22]
  Pf_72h_%Growth_Rep1: 81.32%
[1]; [23]
  Pf_72h_%Growth_Rep2: 78.26%
[2]; [24]
  Tg_72h_%Growth_Rep1: 112.03%
[2]; [25]
  Tg_72h_%Growth_Rep2: 79.02%
[3]; [26]
  Pf_120h_%Growth_Rep1: 64.36%
[3]; [27]
  Pf_120h_%Growth_Rep2: 53.42%
